Like-named read-outs stand apart in the source and are kept apart here.
Legend:
TRPML1 = molecular target: T1, TRPML1 (Homo sapiens, UniProt Q9GZU1); assay: Cellular TRPML1 assay (FLIPR, GCaMP6f calcium read-out); assay type: cell-based
T1 construct: expressed in transfected cells; host or cells: HEK T-REx cells stably expressing GCaMP6f and TRPML1
How it was run: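 HEK T-REx cells stably expressing TRPML1 and GCaMP6f, seeded 24 h before in Optimem + 0.5% FBS. After ~10 min pre-incubation at room temperature, compounds in Ca2+-free Tyrode's buffer were injected on FLIPR Tetra (final DMSO 0.5%). Calcium fluorescence kinetics followed for 300 s.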

TFEB = TFEB translocation assay (TFEB reporter in U2OS cells, imaging); assay type: cell-based; conditions: Homo sapiens; U2OS cell line with TFEB reporter, 2 hours incubation, nucleus to cytoplasm ratio, normalized to Torin-1; read-out: TFEB Translocation pEC50 (converted)
Method: Example B: TFEB Translocation Assay
Reporter TFEB: the reporter is fused to a sequence of monomeric red fluorescent protein.
The reporter TFEB have been stably expressed in U2OS cell line and used as read-out.
Experiments were performed in 384 MTP well format. Cells were seeded in 384-w at a density of 4000 cells/well in 20 μl/well complete growth medium without antibiotics. Twenty-four hours later, cells were treated with compounds and incubated for further 2 hours. Then the cells were imaged and assayed for the response to various compounds using the reporter for TFEB expressed in the cells as readout.
The experiments were performed in a 384-well format according to the following procedure: • 24 h after seeding, cell culture medium was carefully removed and replaced with 20 μl of Opti-MEM (30′ incubation at 37° C. before compound addition) • Then, cells were incubated with compounds diluted in Opti-MEM+0.015% Tween 80 at the desired concentration, with the reference molecule (agonist) Torin-1 at a top concentration of 1 μM (max signal), and with the other reference molecule (agonist) MLSA-5 at top concentration of 20 μM for 2 hours at 37° C. and 5% CO2. The final percentage of DMSO was 0.5% in all the conditions. • Staining of the nuclei was obtained by incubating the cells with 24 μM/well of Hoechst 3342 in standard Tyrode's buffer for 15 min at RT • Then the cells were fixed with PFA 4% for 30 min at RT • After three washes with standard Tyrode's buffer, samples were acquired by recording two fluorescence emission channels (DS-red and blue) at 20× magnification and with at least 3 fields of view per well in an Operetta CLS microscope (PerkinElmer). • Image analysis was performed by using Harmony software (PerkinElmer). The image analysis involved the following steps: flat-field illumination correction, nuclei segmentation, cytoplasm segmentation and calculation of intensity fluorescence in the cytosol and nuclei compartments. Measurements of signal intensity ratio (nucleus to cytoplasm) was used to obtain information on the effects of compounds on the TFEB translocation. • Data from image analysis measurements were finally loaded and analyzed for normalization and fitting procedures in Genedata Screener© software. Data Analysis
Feature: Mean translocation ratio (mean/well)
Data normalization: Stimulator—Neutral control
The GeneData Screener method we have used, normalizes the median of the Stimulator control wells (Torin-1) to 100% and the median of the Neutral control wells (DMSO) to 0% Activity[%]=100*(x−<Min>)/(<“Max”>−<Min>)

[1] = HEKT-REx/GCaMP6f/TRPML1 cells, FLIPR TETRA, kinetic response over 300 seconds, read-out: TRPML1 FLIPR pEC50 (converted)

T1 sequence (Q9GZU1 whole entry): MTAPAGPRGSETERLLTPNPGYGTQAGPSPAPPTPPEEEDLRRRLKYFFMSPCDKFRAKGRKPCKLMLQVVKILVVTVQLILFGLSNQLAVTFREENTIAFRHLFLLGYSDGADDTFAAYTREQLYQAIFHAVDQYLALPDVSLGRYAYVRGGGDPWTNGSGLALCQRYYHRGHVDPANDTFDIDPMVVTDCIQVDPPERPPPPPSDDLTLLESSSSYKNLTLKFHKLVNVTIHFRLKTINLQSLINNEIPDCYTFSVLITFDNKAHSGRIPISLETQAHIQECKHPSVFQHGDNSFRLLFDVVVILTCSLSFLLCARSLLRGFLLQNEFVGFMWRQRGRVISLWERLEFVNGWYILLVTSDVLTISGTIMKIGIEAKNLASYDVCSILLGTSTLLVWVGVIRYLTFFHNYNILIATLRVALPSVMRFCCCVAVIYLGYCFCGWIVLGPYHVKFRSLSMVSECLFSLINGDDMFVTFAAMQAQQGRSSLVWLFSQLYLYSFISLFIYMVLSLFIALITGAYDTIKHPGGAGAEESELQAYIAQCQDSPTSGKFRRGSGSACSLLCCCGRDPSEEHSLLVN

EC50 (TRPML1; [1]) [nM] | SMILES | EC50 (TRPML1) [nM] | EC50 (TFEB) [nM]
10 to 1000 | COC1(C)CN(c2nc(C(=O)Nc3cc(F)c(O[C@@H]4C[C@@H]5C[C@@H]5C4)c(F)c3)c(CC(F)(F)F)o2)C1 [Example 178, N-(4-(cis-bicyclo[3.1.0]hexan-3-yloxy)-3,5-difluorophenyl)-2-(3-methoxy-3-methylazetidin-1-yl)-5-(2,2,2-trifluoroethyl)oxazole-4-carboxamide] |  | 10 to 1000
10 to 1000 | CCc1oc(N2CC(C)(OC)C2)nc1C(=O)Nc1cc(F)c(O[C@@H]2C[C@@H]3C[C@@H]3C2)c(F)c1 [Example 239, N-(4-(cis-bicyclo[3.1.0]hexan-3-yloxy)-3,5-difluorophenyl)-5-ethyl-2-(3-methoxy-3-methylazetidin-1-yl)oxazole-4-carboxamide] |  | 10 to 1000
10 to 1000 | O=C(Nc1cc(F)c(OC2CC3C[C@H]3C2)c(F)c1)c1nc(N2CC3CCOC3C2)oc1CC(F)(F)F (stereo partly drawn) [Example 36, N-(4-{cis-bicyclo[3.1.0]hexan-3-yloxy}-3,5-difluorophenyl)-2-{hexahydro-5H-furo[2,3-c]pyrrol-5-yl}-5-(2,2,2-trifluoroethyl)oxazole-4-carboxamide] |  | 10 to 1000
10 to 1000 | CCc1oc(N2CC3CCC3C2)nc1C(=O)Nc1cc(F)c(OC2CC3C[C@H]3C2)c(F)c1 (stereo partly drawn) [Example 241, N-(4-(cis-bicyclo[3.1.0]hexan-3-yloxy)-3,5-difluorophenyl)-2-(3-azabicyclo[3.2.0]heptan-3-yl)-5-ethyloxazole-4-carboxamide] |  | 10 to 1000
10 to 1000 | O=C(Nc1cc(F)c(O[C@@H]2C[C@@H]3C[C@@H]3C2)c(F)c1)c1nc(N2CCCCCC2)oc1CC(F)(F)F [Example 174, 2-(azepan-1-yl)-N-(4-(cis-bicyclo[3.1.0]hexan-3-yloxy)-3,5-difluorophenyl)-5-(2,2,2-trifluoroethyl)oxazole-4-carboxamide] |  | 10 to 1000
10 to 1000 | O=C(Nc1ccc(O[C@@H]2C[C@@H]3C[C@@H]3C2)c(F)c1)c1nc(N2CCC3(COC3)C2)oc1CC(F)(F)F [Example 73, N-(4-{cis-bicyclo[3.1.0]hexan-3-yloxy}-3-fluorophenyl)-2-{2-oxa-6-azaspiro[3.4]octan-6-yl}-5-(2,2,2-trifluoroethyl)oxazole-4-carboxamide] |  | 10 to 1000
10 to 1000 | O=C(Nc1cc(F)c(O[C@@H]2C[C@@H]3C[C@@H]3C2)c(F)c1)c1nc(N2CC3(CCCO3)C2)oc1CC(F)(F)F [Example 173, N-(4-(cis-bicyclo[3.1.0]hexan-3-yloxy)-3,5-difluorophenyl)-2-(5-oxa-2-azaspiro[3.4]octan-2-yl)-5-(2,2,2-trifluoroethyl)oxazole-4-carboxamide] |  | 10 to 1000
10 to 1000 | CCC1(COC)CN(c2nc(C(=O)Nc3cc(C)c(O[C@@H]4C[C@@H]5C[C@@H]5C4)c(F)c3)c(CC(F)(F)F)o2)C1 [Example 125, N-(4-(cis-bicyclo[3.1.0]hexan-3-yloxy)-3-fluoro-5-methylphenyl)-2-(3-(methoxymethyl)-3-ethylazetidin-1-yl)-5-(2,2,2-trifluoroethyl)oxazole-4-carboxamide] |  | 10 to 1000
10 to 1000 | COCc1oc(N2CC(C)(OC)C2)nc1C(=O)Nc1cc(C)c(O[C@@H]2C[C@@H]3C[C@@H]3C2)c(F)c1 [Example 294, N-(4-(cis-bicyclo[3.1.0]hexan-3-yloxy)-3-fluoro-5-methylphenyl)-2-(3-methoxy-3-methylazetidin-1-yl)-5-(methoxymethyl)oxazole-4-carboxamide] |  | 10 to 1000
10 to 1000 | CCC1(CC)CN(c2nc(C(=O)Nc3cc(F)c(OC4CCC5CC54)c(F)c3)c(CC(F)(F)F)o2)C1 (stereo not shown) [Example 155, N-(4-(bicyclo[3.1.0]hexan-2-yloxy)-3,5-difluorophenyl)-2-(3,3-diethylazetidin-1-yl)-5-(2,2,2-trifluoroethyl)oxazole-4-carboxamide] |  | 10 to 1000
10 to 1000 | O=C(Nc1ccc(O[C@@H]2C[C@@H]3C[C@@H]3C2)c(F)c1)c1nc(N2CC3(CCOCC3)C2)oc1CC(F)(F)F [Example 171, N-(4-(cis-bicyclo[3.1.0]hexan-3-yloxy)-3-fluorophenyl)-2-(7-oxa-2-azaspiro[3.5]nonan-2-yl)-5-(2,2,2-trifluoroethyl)oxazole-4-carboxamide] |  | 10 to 1000

Continued, molecule first:

SMILES | EC50 (TRPML1; [1]) [nM] | EC50 (TRPML1) [nM] | EC50 (TFEB) [nM]
COC1(C)CN(c2nc(C(=O)Nc3cc(O)c(N4C5CCCC4CC5)c(F)c3)c(CC(F)(F)F)o2)C1 [Example 272, N-(4-(8-azabicyclo[3.2.1]octan-8-yl)-3-fluoro-5-hydroxyphenyl)-2-(3-methoxy-3-methylazetidin-1-yl)-5-(2,2,2-trifluoroethyl)oxazole-4-carboxamide] |  | 10 to 1000 | 10 to 1000
O=C(Nc1ccc(N2CCCCC2)c(O)c1)c1nc(N2CCCC2)oc1CC(F)(F)F [Example 84, N-(3-hydroxy-4-(piperidin-1-yl)phenyl)-2-(pyrrolidin-1-yl)-5-(2,2,2-trifluoroethyl)oxazole-4-carboxamide] | 1000 to 10000 |  | 10000 to 100000
Cc1oc(N2CCCC2)nc1C(=O)Nc1ccc(OC2CCCC2)c(F)c1 [Example 120, N-(4-(cyclopentyloxy)-3-fluorophenyl)-5-methyl-2-(pyrrolidin-1-yl)oxazole-4-carboxamide] | 1000 to 10000 |  | 1000 to 10000
CC1(CO)CN(c2nc(C(=O)Nc3ccc(OC4CC5CC(C5)C4)c(F)c3)c(CC(F)(F)F)o2)C1 (stereo not shown) [Example 135, N-(4-(bicyclo[3.1.1]heptan-3-yloxy)-3-fluorophenyl)-2-(3-(hydroxymethyl)-3-methylazetidin-1-yl)-5-(2,2,2-trifluoroethyl)oxazole-4-carboxamide] | 10 to 1000 |  | 10 to 1000
O=C(Nc1ccc(OC2COCC2(F)F)c(F)c1)c1nc(N2CCCC2)oc1CC(F)(F)F (racemic) [Example 71, N-(4-((4,4-difluorotetrahydrofuran-3-yl)oxy)-3-fluorophenyl)-2-(pyrrolidin-1-yl)-5-(2,2,2-trifluoroethyl)oxazole-4-carboxamide] | 10 to 1000 |  | 10 to 1000
CCc1oc(N2CC(C)(CO)C2)nc1C(=O)Nc1cc(C)c(OC2CC3CC(C3)C2)c(F)c1 (stereo not shown) [Example 224, N-(4-(bicyclo[3.1.1]heptan-3-yloxy)-3-fluoro-5-methylphenyl)-5-ethyl-2-(3-(hydroxymethyl)-3-methylazetidin-1-yl)oxazole-4-carboxamide] | 10 to 1000 |  | 10 to 1000
CCc1oc(N2CC(CC)(OC)C2)nc1C(=O)Nc1ccc(OC2CC3CC(C3)C2)c(F)c1 (stereo not shown) [Example 228, N-(4-(bicyclo[3.1.1]heptan-3-yloxy)-3-fluorophenyl)-5-ethyl-2-(3-ethyl-3-methoxyazetidin-1-yl)oxazole-4-carboxamide] | 10 to 1000 |  | 10 to 1000
O=C(Nc1ccc(OC2CCCCC2(F)F)c(F)c1)c1nc(N2CCC3(COC3)C2)oc1CC(F)(F)F (stereo not shown) [Example 68, N-(4-((2,2-difluorocyclohexyl)oxy)-3-fluorophenyl)-2-(2-oxa-6-azaspiro[3.4]octan-6-yl)-5-(2,2,2-trifluoroethyl)oxazole-4-carboxamide] | 10 to 1000 |  | 10 to 1000
O=C(Nc1ccc(OC2CCCC2(F)F)c(F)c1)c1nc(N2CC3(C2)CC(F)(F)C3)oc1CC(F)(F)F (stereo not shown) [Example 17, 2-(6,6-difluoro-2-azaspiro[3.3]heptan-2-yl)-N-(4-((2,2-difluorocyclopentyl)oxy)-3-fluorophenyl)-5-(2,2,2-trifluoroethyl)oxazole-4-carboxamide] | 10 to 1000 |  | 10 to 1000

Reference: patent publication US12098145B2 (Libra Therapeutics, Inc., priority 2022, dated 2024)
